Among the data in patent publication US10744150B2, “Cyclic dinucleotides as anticancer agents” (BRISTOL-MYERS SQUIBB COMPANY, priority 2017, dated 2020) are EC50 and IC50 values, retold here.

SMILES strings stand for the structures. Like-named read-outs stand apart in the source and are kept apart here.

For assay [1], the system named is IRF3. Description: STING THP1 reporter assay, IRF pathway (secreted luciferase Lucia, QUANTI-Luc). Conditions: THP1-Dual cells, 10% human plasma, 100% activation = 100 μM cGAMP, luciferase readout, read-out: THP1 Reporter Assays EC50 IRF3. Format: cell-based. The text has this:
(§1) THP1-Dual™ cells were derived from the human THP-1 monocyte cell line by stable integration of two inducible reporter constructs. To this end, THP1-Dual™ cells allow the simultaneous study of the NF-κB pathway, by monitoring the activity of SEAP, and the IRF pathway by assessing the activity of a secreted luciferase (Lucia). Both reporter proteins are readily measurable in the cell culture supernatant when using QUANTI-Blue™, a SEAP detection reagent, and QUANTI-Luc™, a luciferase detection reagent.
(§2) THP1-Dual™ cells induce the activation of NF-κB in response to STING agonists. They also trigger the IRF pathway upon stimulation with STING agonists, such as cGAMP. Here, the THP-1-Dual cells were used to assess STING binders for function on the cellular level.
(§3) Serial dilutions of compounds in DMSO were added to low volume 384 well plates at 100 nl/well using an ECHO acoustic dispenser (Labcyte, model 550) to achieve final starting concentration of 100 μM in cell suspension. THP-1 Dual™ STING reporter cells (Invivogen, Dual cells cat # THPD-nfis) were added to the plates with compounds at 15,000 cells in 10 μL per well in RPMI media (Gibco, cat #11875) containing 10% human plasma in a low volume 384-well black wall clear bottom tissue culture plate (Corning, cat #3542) for SEAP assay and low volume solid white plate (Corning, cat #3826) for luciferase assay. One column of the plate was reserved for treatment with cGAMP at 100 μM for 100% activation calculation and one column for no treatment (DMSO only) for baseline activation. Plates were then incubated in 37° C. incubator at 5% CO2 for 20 hours.
(§4) In the SEAP assay, 5 μl of 2× QuantiBlue (Invivogen, cat # Rep-qb2) is added to 384 well black plates seeded with THP1 cells and incubated at 37° C. for 2 hours. Plates were read on the Envision (Perkin Elmer) at 620 nm wavelength (OD620). In the luciferase assay, 5 μl of Quantiluc (Invivogen, Rep-qlc2) is added to white 384 well plates seeded with THP1 cells and read at 5 minutes on the Envision (Perkin Elmer) using a luminescence protocol (RLU). For both cell lines, 100% activation was determined by value (RLU) of THP-1 Dual STING cells stimulated with 100 μM cGAMP (Invivogen, cat # TLRL-NACGA23-5).

Assay [2] deals with T1, STING WT: His-TVMV-S-hSTING(155-341)-H232R (Homo sapiens, UniProt Q86WV6, H232R).
T1 construct: His-TVMV-S-hSTING(155-341)-H232R
The experiment in a line: STING HTRF binding assay (time resolved FRET competition), STING WT. The following applies: 20 nM His-tagged STING cytoplasmic domain, 200 nM fluorescein-labeled cGAMP analog probe, one hour; read-out: HTRF Binding Assays IC50 STING WT. On the procedure:
(§5) A time resolved FRET-based competition binding assay was used to assess test article binding to STING WT and STING AQ. His-tagged STING cytoplasmic domain (WT or AQ) at a concentration of 20 nM was incubated with 2.5 nM Tb-labeled anti-His antibody, test compound, and fluorescein-labeled cGAMP analog probe (BioLog cat. no. C195) at a concentration of 200 nM (STING WT) or 40 nM (STING AQ) in PBS containing 0.005% Tween-20 and 0.1% BSA for one hour. Fluorescence at 495 nm and 520 nm was measured using an EnVision microplate reader to quantify FRET between Tb-labeled anti-His antibody and fluorescein-labeled probe. Background was defined as the signal obtained in the absence of STING protein, and background subtracted FRET ratios were normalized to the maximum signal obtained in the absence of test compound. These values were converted to a percent inhibition. Percent inhibition was determined for test compounds at 11 concentrations. The IC50, defined as the concentration of competing test compound needed to reduce specific binding of the probe by 50%, was calculated using the 4 parameter logistic equation to fit the data
For orientation: Time-resolved FRET reads energy transfer from a long-lived donor to a nearby acceptor.

Assay [3] has as its target T2, STING AQ: His-TVMV-S-hSTING(155-341)-G230A-R293Q (Homo sapiens, UniProt Q86WV6, G230A/H232R/R293Q).
T2 construct: His-TVMV-S-hSTING(155-341)-G230A-R293Q
Description: STING HTRF binding assay (time resolved FRET competition), STING AQ. The following applies: 20 nM His-tagged STING cytoplasmic domain, 40 nM fluorescein-labeled cGAMP analog probe, one hour; read-out: HTRF Binding Assays IC50 STING AQ. On the procedure:
as §5

Assay [4] relates to NFkB. The experiment in a line: STING THP1 reporter assay, NF-κB pathway (SEAP, QUANTI-Blue). Format: cell-based. Conditions: THP1-Dual cells, 10% human plasma, 100% activation = 100 μM cGAMP.
Source text: as §1, §2, §3, §4

Setting [5] is: 20 hours, SEAP readout OD620, read-out: THP1 Reporter Assays EC50 NFkB.
Setting [6] is: Homo sapiens, THP-1, 20 h, SEAP readout OD620, read-out: THP1 Reporter Assays EC50 NFkB.

T1 sequence (Q86WV6 with tags, fused parts or gaps H232R): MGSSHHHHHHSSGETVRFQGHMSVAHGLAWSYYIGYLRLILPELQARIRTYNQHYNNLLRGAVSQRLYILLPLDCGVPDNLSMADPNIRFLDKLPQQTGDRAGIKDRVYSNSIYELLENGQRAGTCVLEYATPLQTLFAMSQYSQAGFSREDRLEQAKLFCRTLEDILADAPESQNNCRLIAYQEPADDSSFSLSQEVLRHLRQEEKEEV
T2 sequence (Q86WV6 with tags, fused parts or gaps G230A/H232R/R293Q): as the sequence (Q86WV6 with tags, fused parts or gaps H232R) above, with G99A, R162Q counted along it

On to `Nc1ncnc2c1ncn2[C@@H]1O[C@@H]2COP(O)(=S)OC[C@@H]3[C@@H](COP(O)(=S)O[C@H]2[C@H]1F)C[C@H]3n1cnc2c(=O)[nH]cnc21` (single isomer, unassigned) [Example 5-4], for which the EC50 (usually the concentration giving half of the maximal effect) is 12 µM in assay [1] (20 hours) and 91 µM in assay [4] (setting [5]). The IC50 (in general, the concentration that inhibits the measured activity by half) in assay [2] was determined as 0.12 µM; in assay [3], 0.01 µM.
Turning to `Nc1ncnc2c1ncn2[C@@H]1C[C@@H]2COP(O)(=S)O[C@H]3C[C@H](n4ccc5c(Cl)ncnc54)O[C@@H]3COP(=O)(S)OC[C@H]21` (single isomer, unassigned) [Example 6-1], the EC50 in assay [1] (Homo sapiens, THP-1, 20 h) is over 100 µM; in assay [4] (setting [6]), over 100 µM. Further, the IC50 in assay [2] was over 100 µM; in assay [3], 38.9 µM.
Take `Nc1ncnc2c1ncn2[C@@H]1C[C@@H]2COP(O)(=S)O[C@H]3[C@H](F)[C@H](n4ccc5c(Cl)ncnc54)O[C@@H]3COP(O)(=S)OC[C@H]21` (single isomer, unassigned) [Example 7-1]: the EC50 in assay [1] (Homo sapiens, THP-1, 20 h) is over 100 µM; in assay [4] (setting [6]) it was over 100 µM. Moreover, the results for the IC50 in assay [2] and in assay [3] were over 100 µM and 32.7 µM, respectively.
On to `Nc1ncnc2c1ncn2[C@@H]1C[C@@H]2COP(O)(=S)O[C@H]3[C@H](F)[C@H](n4ccc5c(Cl)ncnc54)O[C@@H]3COP(O)(=S)OC[C@H]21` (single isomer, unassigned) [Example 7-3], for which the EC50 in assay [1] (20 hours) and in assay [4] (setting [5]) was over 100 µM each time. Also, the IC50 in assay [2] was over 100 µM; in assay [3], 61.1 µM.
Consider `Nc1ncnc2c1ncn2[C@@H]1C[C@@H]2COP(O)(=S)O[C@H]3[C@H](F)[C@H](n4ccc5c(Cl)ncnc54)O[C@@H]3COP(O)(=S)OC[C@H]21` (single isomer, unassigned) [Example 7-4], for which the EC50 in assay [1] (20 hours) and in assay [4] (setting [5]) was over 100 µM each time. Besides, the IC50 came out at 49.1 µM in assay [2] and 6.3 µM in assay [3].
Take `Nc1ncnc2c1ccn2[C@@H]1O[C@@H]2COP(O)(=S)OC[C@@H]3[C@@H](COP(O)(=S)O[C@H]2[C@@H]1F)C[C@H]3n1cnc2c(N)ncnc21` (single isomer, unassigned) [Example 8-2]: the EC50 is over 100 µM in assay [1] (20 hours) and 97 µM in assay [4] (setting [5]). The IC50 in assay [2] was 33 µM; in assay [3] it was over 100 µM.
On to `Nc1ncnc2c1ccn2[C@@H]1O[C@@H]2COP(O)(=S)OC[C@@H]3[C@@H](COP(O)(=S)O[C@H]2[C@@H]1F)C[C@H]3n1cnc2c(N)ncnc21` (single isomer, unassigned) [Example 8-3], for which the EC50 in assay [1] (20 hours) and in assay [4] (setting [5]) was over 100 µM throughout. Further, the IC50 in assay [2] and in assay [3] was over 100 µM throughout.
Take `Nc1ncnc2c1ccn2[C@@H]1O[C@@H]2COP(O)(=S)OC[C@@H]3[C@@H](COP(O)(=S)O[C@H]2[C@@H]1F)C[C@H]3n1cnc2c(N)ncnc21` (single isomer, unassigned) [Example 8-4]: the EC50 in assay [1] (20 hours) and in assay [4] (setting [5]) was over 100 µM each time. The half-inhibitory concentration (IC50) in assay [2] was over 100 µM; in assay [3], 15.8 µM.
For the compound `Nc1ncnc2c1ncn2[C@@H]1C[C@@H]2COP(O)(=S)O[C@H]3[C@@H](F)[C@H](n4cnc5c(=O)[nH]c6nccn6c54)O[C@@H]3COP(O)(=S)OC[C@H]21` (single isomer, unassigned) [Example 9-1], the EC50 in assay [1] (Homo sapiens, THP-1, 20 h) was over 100 µM; in assay [4] (setting [6]) it was over 100 µM. Besides, the figures for the IC50 in assay [2] and in assay [3] were over 100 µM and 20 µM, respectively.
As for `Nc1ncnc2c1ncn2[C@@H]1C[C@@H]2COP(O)(=S)O[C@H]3[C@@H](F)[C@H](n4cnc5c(=O)[nH]c6nccn6c54)O[C@@H]3COP(O)(=S)OC[C@H]21` (single isomer, unassigned) [Example 9-2], the concentration giving a half-maximal response (EC50) in assay [1] (20 hours) and in assay [4] (setting [5]) was over 100 µM each time. Also, the IC50 in assay [2] came out at 4.3 µM; in assay [3], 0.92 µM.
Turning to `Nc1ncnc2c1ncn2[C@@H]1C[C@@H]2COP(O)(=S)O[C@H]3[C@@H](F)[C@H](n4cnc5c(=O)[nH]c6nccn6c54)O[C@@H]3COP(O)(=S)OC[C@H]21` (single isomer, unassigned) [Example 9-3], the EC50 in assay [1] (20 hours) and in assay [4] (setting [5]) was over 100 µM each time. Moreover, the IC50 in assay [2] worked out at 9.1 µM; in assay [3], 0.35 µM.
